Data reported in patent publication US12312337B2, “Compounds and methods for treating cancer” (ANTIDOTE IP HOLDINGS, LLC, priority 2019, dated 2025).

test system: AhR; experiment: not given; details: binding to the AhR; acts as an agonist; read-out: apparent Kd; cited from earlier work

Row | SMILES | Kd
1 | Nc1ccccc1C(=O)CC(N)C(=O)O (centres unmarked) [Kynurenine] | ~4 µM

target: T1, human AhR (Homo sapiens, UniProt P35869); experiment: INDIGO AhR Reporter Assay (luciferase reporter cells, antagonist mode); type: cell-based; details: antagonist mode with 50 nM of VAF347 (AhR agonist); 22-24 hours incubation; luciferase RLU
T1 construct: INDIGO's Aryl Hydrocarbon Receptor (AhR) Reporter Cells include the luciferase reporter gene functionally linked to an AhR-responsive promoter
T1 sequence (P35869 11-848): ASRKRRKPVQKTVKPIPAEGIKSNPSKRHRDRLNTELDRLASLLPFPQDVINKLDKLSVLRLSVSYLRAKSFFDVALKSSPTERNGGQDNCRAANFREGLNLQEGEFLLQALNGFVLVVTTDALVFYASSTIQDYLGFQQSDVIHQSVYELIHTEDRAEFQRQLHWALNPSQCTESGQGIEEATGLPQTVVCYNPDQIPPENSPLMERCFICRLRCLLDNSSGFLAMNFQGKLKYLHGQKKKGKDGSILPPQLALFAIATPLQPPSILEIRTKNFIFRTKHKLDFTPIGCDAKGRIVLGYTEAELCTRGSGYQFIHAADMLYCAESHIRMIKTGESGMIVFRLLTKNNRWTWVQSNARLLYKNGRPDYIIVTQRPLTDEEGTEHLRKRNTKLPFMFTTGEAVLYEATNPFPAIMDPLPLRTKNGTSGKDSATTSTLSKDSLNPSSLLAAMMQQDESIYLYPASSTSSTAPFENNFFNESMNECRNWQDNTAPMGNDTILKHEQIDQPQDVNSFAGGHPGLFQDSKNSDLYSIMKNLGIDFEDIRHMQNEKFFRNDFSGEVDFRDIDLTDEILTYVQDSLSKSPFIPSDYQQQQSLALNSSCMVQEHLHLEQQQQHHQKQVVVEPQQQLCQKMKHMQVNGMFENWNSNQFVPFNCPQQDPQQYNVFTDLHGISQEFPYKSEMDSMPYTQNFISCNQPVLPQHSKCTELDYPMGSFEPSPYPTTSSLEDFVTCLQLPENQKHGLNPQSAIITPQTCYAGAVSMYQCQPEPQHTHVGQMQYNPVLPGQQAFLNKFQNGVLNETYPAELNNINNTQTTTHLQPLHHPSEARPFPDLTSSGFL
From the text: INDIGO's Aryl Hydrocarbon Receptor (AhR) Reporter Cells include the luciferase reporter gene functionally linked to an AhR-responsive promoter. Thus, quantifying changes in luciferase expression in the treated reporter cells provides a sensitive surrogate measure of the changes in AhR activity. The principle application of this reporter assay is in the screening of test samples to quantify any functional activity, either agonist or antagonist, that they may exert against human AhR. Reporter Cells incorporate the cDNA encoding beetle luciferase, a 62 kD protein originating from the North American firefly (Photinus pyralis). Luciferase catalyzes the mono-oxidation of D-luciferin in a Mg^2+-dependent reaction that consumes 02 and ATP as co-substrates, and yields as products oxyluciferin, AMP, PPi, CO2, and photon emission. Luminescence intensity of the reaction is quantified using a luminometer, and is reported in terms of Relative Light Units (RLU's). In brief, 200 μl of Reporter Cells was dispensed into wells of the assay plate and pre-incubated for 4-6 hours. Following the pre-incubation period, culture media were discarded and 200 µl/well of the prepared 1×-concentration treatment media were added. Following 22-24 hours of incubation, treatment media were discarded and Luciferase Detection Reagent was added. The intensity of light emission (in units of “Relative Light Units” (RLU)) from each assay well was quantified using a plate-reading luminometer. The assay was run as a competitive binding assay in the antagonist mode with 50 nM of VAF347, a known AhR agonist.
In Table 4, IC50 values are reported as A, B, C, or D. A represents an IC50 value of less than 100 nM. B represents an IC50 value of equal or greater than 100 nM and less than 500 nM. C represents an IC50 value of equal or greater than 500 nM and less than 1 μM. D represents an IC50 value of equal or greater than 1 μM.

Row | SMILES | IC50
2 | Cn1nc(-c2ccccc2)cc1NC(=O)c1ccc2cc(-c3ccncc3F)cnc2c1 [Compound 125, 3-(3-fluoropyridin-4-yl)-N-(1-methyl-3-phenyl-1H-pyrazol-5-yl) quinoline-7-carboxamide] | 0.1 to 0.5 µM
3 | Cn1nc(-c2ccccc2)cc1NC(=O)c1ccc2cc(-c3ccc(F)cn3)cnc2c1 [Compound 128, 3-(5-fluoropyridin-2-yl)-N-(1-methyl-3-phenyl-1H-pyrazol-5-yl) quinoline-7-carboxamide] | < 0.1 µM
4 | CCN(CC)S(=O)(=O)c1cc(NC(=O)c2cc3cc(-c4ccc(F)cc4)cnc3s2)ccc1Cl [Compound 141, N-[4-chloro-3-(N,N-diethylsulfamoyl)phenyl]-5-(4-fluorophenyl)-thieno[2,3-b]pyridine-2-carboxamide] | 0.1 to 0.5 µM
5 | CCN(CC)S(=O)(=O)c1cc(NC(=O)c2cc3cc(-c4ccncc4)cnc3s2)ccc1Cl [Compound 142, N-[4-chloro-3-(N,N-diethylsulfamoyl)phenyl]-5-(pyridin-4-yl)-thieno[2,3-b]pyridine-2-carboxamide] | 0.1 to 0.5 µM
6 | CCN(CC)S(=O)(=O)c1cc(NC(=O)c2cc3cc(-c4ccccn4)cnc3s2)ccc1Cl [Compound 144, N-[4-chloro-3-(N,N-diethylsulfamoyl)phenyl]-5-(pyridin-2-yl)-thieno[2,3-b]pyridine-2-carboxamide] | 0.5 to 1 µM
7 | CCN(CC)S(=O)(=O)c1cc(NC(=O)c2cc3cc(-c4ccncc4F)cnc3s2)ccc1Cl [Compound 145, N-[4-chloro-3-(N,N-diethylsulfamoyl)phenyl]-5-(3-fluoropyridin-4-yl)-thieno[2,3-b]pyridine-2-carboxamide] | 0.1 to 0.5 µM
8 | CN(C)S(=O)(=O)c1cc(NC(=O)c2cc3cc(-c4ccc(F)cc4)cnc3s2)ccc1Cl [Compound 148, N-[4-chloro-3-(N,N-dimethylsulfamoyl)phenyl]-5-(4-fluorophenyl)-thieno[2,3-b]pyridine-2-carboxamide] | 0.1 to 0.5 µM
9 | CCN(CC)S(=O)(=O)c1cc(NC(=O)c2cc3cc(-c4ccc(F)cn4)cnc3s2)ccc1Cl [Compound 151, N-[4-chloro-3-(N,N-diethylsulfamoyl)phenyl]-5-(5-fluoropyridin-2-yl)-thieno[2,3-b]pyridine-2-carboxamide] | > 1 µM
10 | CN(C)S(=O)(=O)c1cc(NC(=O)c2cc3cc(-c4ccncc4F)cnc3s2)ccc1Cl [Compound 153, N-[4-chloro-3-(N,N-dimethylsulfamoyl)phenyl]-5-(3-fluoropyridin-4-yl)-thieno[2,3-b]pyridine-2-carboxamide] | 0.5 to 1 µM
11 | CN1CCN(S(=O)(=O)c2cc(NC(=O)c3ccc4c(c3)NC(=O)CO4)ccc2Cl)CC1 [Compound 172] | 0.5 to 1 µM
